Assay results published in publication PMC8832507 (Molecular cancer therapeutics, 2021).
pIC50: −log10 of the molar value. Where a SMILES comes first, the peptide text is derived from it. [ ]: non-standard residue; d: D form. The star is where a group is joined. Dolaproine = CO[C@@H]([C@@H]1CCCN1)[C@@H](C)C(=O)O; Dil = CC[C@H](C)[C@H](NC)[C@@H](CC(=O)O)OC; X1 = C[C@@H](N*)[C@@H](O)c1ccccc1; NMeV = CN[C@H](C(=O)O)C(C)C

Columns and labels:
tumor spheroids = test: Tumor spheroid pharmacodynamic marker; assay type: cell-based; details: for Bystander penetration in spheroids by pH3 PD signal (in words): 25 nM AF680-ADC or AF680-trastuzumab, 24-48 hours; for Bystander penetration in spheroids by γH2A.X PD signal (in words): 24-72 hours
PAMPA permeability assay = details: free payload
HCC1954 cells = test: Cytotoxicity; assay type: cell-based; details: for pIC50: read-out: Free payload IC50
MDA-MB-468 cells = test: Cytotoxicity; assay type: cell-based; details: for pIC50: read-out: Free payload IC50, MDA-MB-468 cells
[1] = system: HCC1954 (Ag+) and MDA-MB-468 (Ag−) co-culture; test: Bystander co-culture assay; assay type: cell-based

Compound: CC[C@H](C)[C@@H]([C@@H](CC(=O)N1CCC[C@H]1[C@H](OC)[C@@H](C)C(=O)N[C@H](C)[C@@H](O)c1ccccc1)OC)N(C)C(=O)[C@@H](NC(=O)[C@@H](NC)C(C)C)C(C)C [MMAE] (H-[NMeV]V[Dil][Dolaproine]-X1)
- Bystander penetration in spheroids by pH3 PD signal (in words) (tumor spheroids): pH3 signal throughout the spheroid at 48 hours
- PAMPA permeability, fold higher than either Ahx-maytansine or Lys-SMCC-DM1 (PAMPA permeability assay): ~10 fold
- Free payload IC50, fold more potent than either Ahx-maytansine or Lys-SMCC-DM1 (HCC1954 cells): over 100 fold

Compound: CCc1c2c(nc3ccc(O)cc13)-c1cc3c(c(=O)n1C2)COC(=O)[C@]3(O)CC [SN-38]
- Fold higher free payload sensitivity of MDA-MB-468 cells compared to HCC1954 (MDA-MB-468 cells): 2–3 fold
- pIC50 (MDA-MB-468 cells): ~9.22
- Bystander penetration in spheroids by γH2A.X PD signal (in words) (tumor spheroids; 25 nM AF680-ADC): not readily apparent
- pIC50 (HCC1954 cells): ~8.74

Compound: calicheamicin G [CaliG]
- Bystander penetration in spheroids by γH2A.X PD signal (in words) (tumor spheroids; 25 nM AF680-ADC): negligible

Compound: CC[C@@]1(O)C(=O)OCc2c1cc1n(c2=O)Cc2c-1nc1cc(F)c(C)c3c1c2[C@@H](NC(=O)CO)CC3 [DXd]
- Fold higher free payload sensitivity of MDA-MB-468 cells compared to HCC1954 (MDA-MB-468 cells): 2–3 fold
- pIC50 (MDA-MB-468 cells): ~8.64
- Ag− cell death in co-culture ([1]; any concentration higher than 250 pM): 100%
- pIC50 (HCC1954 cells): ~8.21

Compound: T-DM1
- Distance from spheroid edge of directly targeted cells showing pH3 signal (tumor spheroids; 25 nM AF680-ADC): ~ 75 µm
- Bystander penetration in spheroids by pH3 PD signal (in words) (tumor spheroids): did not exhibit bystander killing even at 48 hours
- Ag+ cell death in co-culture (in words) ([1]; 1 nM ADC, 6 days): complete Ag+ cell death
- Ag− cell bystander toxicity in co-culture (in words) ([1]; 1 nM ADC, 6 days, varying % Ag+ cells): no Ag− toxicity even at a 90% Ag+ cell percentage

Compound: calicheamicin D [CaliD]
- Bystander penetration in spheroids by γH2A.X PD signal (in words) (tumor spheroids; 25 nM AF680-ADC): greatest bystander cell killing
- PD response in spheroids with potency matched doses (in words) (tumor spheroids; T-CaliG 75nM, T-CaliD 1nM): more efficient at reaching cells in the spheroid center

Compound: CC[C@@]1(O)C(=O)OCc2c1cc1n(c2=O)Cc2c-1nc1cc(F)c(C)c3c1c2[C@@H](N)CC3 [exatecan]
- Bystander penetration in spheroids by γH2A.X PD signal (in words) (tumor spheroids; 25 nM AF680-ADC): greatest PD signal at the spheroid center
- PAMPA permeability, fold higher than DXd (PAMPA permeability assay): ~ 2 fold
- PAMPA permeability, fold higher than SN-38 (PAMPA permeability assay): ~ 5 fold
- Bystander efficiency in modified co-culture (in words) ([1]; fixed number of Ag− cells, increasing number of Ag+ cells, fixed ADC concentration): more efficient

Compound: Ahx-maytansine
- Bystander penetration in spheroids by pH3 PD signal (in words) (tumor spheroids): detectable but localized bystander cell death
